Test results reported in patent US8716320B2, “Antibacteriall heterocyclic ureas” (Replidyne, Inc., priority 2006, dated 2014).
Converted amounts (≈) assume the structure as drawn.

Legend:
S. pyogenes PolC = S. pyogenes PolC (Streptococcus pyogenes, UniProt Q8NZB5); test: Inhibition of PolC primer extension activity (scintillation proximity assay); type: biochemical; conditions: serial 2-fold dilutions, XLfit
Description: The polC gene from Streptococcus pyogenes was overexpressed and PolC was purified as described in PCT/JUS05/15548. Primer extension activity of PolC was measured using 1 μM oligonucleotide primer-template (primer strand 5′-ACCAGTGAGACGGGCAACA (SEQ ID NO: 1), template strand 5′-[…] SEQ ID NO: 2)). Reactions contained 10 mM magnesium acetate, 50 mM Tricine/Tris pH 7.8, 2.4% (w/v) polyethylene glycol (˜8000 MW), 0.024% pluronic F68, 1 mM dithiothreitol, 20 μM dATP, 20 μM dCTP, 0.5 μM dGTP, 0.72 μM dTTP, 0.28 μM 3H-dTTP (0.005 μCi/μL), 8% DMSO and 15 nM PolC. Reactions (25 μL) were incubated for 10 minutes at room temperature and stopped by addition of an equal volume of 100 mM EDTA. Incorporation of radiolabelled dTTP was measured by scintillation proximity assay by addition of 100 μL of 1 mg/mL PEI-PVT beads in 300 mM citrate pH 3.0.
Compounds of formula (I) were tested for inhibition of S. pyogenes PolC activity. Serial 2-fold dilutions of compounds were tested for inhibition of PolC activity and IC50's were determined (XLfit). […] These compounds were specific for prokaryotic DNA polymerase, showing little or no inhibition of eukaryotic S. cerevisiae polymerase delta at concentrations up to 160 μM.

[1] = system: S. aureus, S. pneumoniae, S. pyogenes, and E. faecalis; test: Broth microdilution MIC (CLSI), major Gram-positive organisms; type: cell-based; conditions: against some strains of S. aureus
Description: (§1) Compounds of the present invention were tested for antibacterial activity against a variety of pathogenic organisms including S. aureus, S. pneumoniae, S. pyogenes, E. faecalis, H. influenza and M. catarrhalis using a standard broth microdilution method to determine their minimum inhibitory concentrations (MICs). All compounds were tested using standard methods in accordance with CLSI guidelines (Clinical and Laboratory Standards Institute). […] Compounds of the present invention were not compromised by existing resistance to all drug classes tested, including β-lactams, glycopeptides, oxazolidinones, macrolides, and fluoroquinolones. In particular, the compound described in Example 31 was active against methicillin-(oxacillin-) resistant S. aureus (MRSA), vancomycin-intermediate S. aureus (VISA), linezolid-resistant S. aureus, methicillin-(oxacillin-) resistant S. epidermidis, macrolide-resistant S. pyogenes, macrolide-, penicillin-, and levofloxacin-resistant S. pneumoniae, and vancomycin-resistant E. faecalis (VRE).

S. aureus = test: Time kill kinetic studies; type: cell-based
S. pneumoniae = test: Time kill kinetic studies; type: cell-based
E. faecalis = test: Time kill kinetic studies; type: cell-based
S. epidermidis = test: Time kill kinetic studies; type: cell-based
S. pyogenes = test: Time kill kinetic studies; type: cell-based
E. faecium = test: Time kill kinetic studies; type: cell-based
[2] = system: linezolid-resistant S. aureus; test: Antibacterial activity against resistant strains (MIC); type: cell-based
Description: as §1

[3] = system: macrolide-, penicillin-, and levofloxacin-resistant S. pneumoniae; test: as above; type: cell-based
Description: as §1

[4] = system: macrolide-resistant S. pyogenes; test: as above; type: cell-based
Description: as §1

[5] = system: methicillin-(oxacillin-) resistant S. aureus (MRSA); test: as above; type: cell-based
Description: as §1

[6] = system: methicillin-(oxacillin-) resistant S. epidermidis; test: as above; type: cell-based
Description: as §1

[7] = system: vancomycin-, macrolide-, and ciprofloxacin-resistant E. faecium; test: as above; type: cell-based
Description: as §1

[8] = system: vancomycin-intermediate S. aureus (VISA); test: as above; type: cell-based
Description: as §1

[9] = system: vancomycin-resistant E. faecalis (VRE); test: as above; type: cell-based
Description: as §1

[10] = system: clinically relevant resistant strains; test: MICs in clinically relevant resistant strains (all listed strains together); type: cell-based; conditions: for MIC: range over the resistant strains listed
Description: as §1

[11] = system: MRSA, vancomycin-resistant E. faecalis (VRE), vancomycin-resistant E. faecium and macrolide-resistant S. pyogenes; test: MIC90 against resistant Gram-positive bacteria; type: cell-based, S. aureus
Description: as §1

Chain of S. pyogenes PolC (Q8NZB5 whole entry): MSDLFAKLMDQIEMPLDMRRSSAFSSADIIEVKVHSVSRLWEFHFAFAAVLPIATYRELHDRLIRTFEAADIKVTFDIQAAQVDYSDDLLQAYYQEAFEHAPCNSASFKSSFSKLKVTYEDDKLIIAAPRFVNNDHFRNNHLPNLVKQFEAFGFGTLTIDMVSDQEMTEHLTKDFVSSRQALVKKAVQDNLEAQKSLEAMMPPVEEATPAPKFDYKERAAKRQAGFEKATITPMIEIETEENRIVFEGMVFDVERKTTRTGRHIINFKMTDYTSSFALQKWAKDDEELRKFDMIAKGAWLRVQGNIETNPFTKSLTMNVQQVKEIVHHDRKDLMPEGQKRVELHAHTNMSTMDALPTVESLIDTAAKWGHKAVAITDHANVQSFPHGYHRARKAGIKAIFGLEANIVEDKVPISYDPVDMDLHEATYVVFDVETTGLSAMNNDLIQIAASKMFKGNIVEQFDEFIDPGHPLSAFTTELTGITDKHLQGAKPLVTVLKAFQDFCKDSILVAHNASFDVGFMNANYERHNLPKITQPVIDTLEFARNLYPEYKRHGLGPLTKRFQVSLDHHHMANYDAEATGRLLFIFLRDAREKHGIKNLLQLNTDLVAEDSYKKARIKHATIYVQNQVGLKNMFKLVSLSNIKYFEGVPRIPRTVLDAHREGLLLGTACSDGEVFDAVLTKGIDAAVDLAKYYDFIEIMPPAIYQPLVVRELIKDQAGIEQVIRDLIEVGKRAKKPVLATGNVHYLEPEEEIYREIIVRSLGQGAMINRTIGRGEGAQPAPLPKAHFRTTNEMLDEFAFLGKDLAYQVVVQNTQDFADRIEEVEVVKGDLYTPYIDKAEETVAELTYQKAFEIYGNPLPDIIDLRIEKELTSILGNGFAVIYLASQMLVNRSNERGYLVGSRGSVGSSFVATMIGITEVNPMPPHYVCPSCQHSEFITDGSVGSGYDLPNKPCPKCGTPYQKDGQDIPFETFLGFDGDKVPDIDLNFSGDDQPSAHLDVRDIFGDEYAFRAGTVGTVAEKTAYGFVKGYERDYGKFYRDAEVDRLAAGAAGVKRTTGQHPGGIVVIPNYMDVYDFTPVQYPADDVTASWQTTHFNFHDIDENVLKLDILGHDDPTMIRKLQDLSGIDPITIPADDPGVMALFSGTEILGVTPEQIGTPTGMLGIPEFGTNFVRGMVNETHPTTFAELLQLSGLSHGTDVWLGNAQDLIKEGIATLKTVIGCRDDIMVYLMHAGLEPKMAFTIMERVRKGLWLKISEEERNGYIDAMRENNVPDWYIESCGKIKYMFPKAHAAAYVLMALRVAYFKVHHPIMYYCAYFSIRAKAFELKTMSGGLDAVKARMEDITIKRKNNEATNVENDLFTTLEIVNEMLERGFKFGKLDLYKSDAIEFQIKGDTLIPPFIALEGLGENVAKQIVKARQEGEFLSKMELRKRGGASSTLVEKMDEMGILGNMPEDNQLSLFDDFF

Structure (SMILES): COCc1csc(NC(=O)NCc2ccc(Cl)c(Cl)c2)n1 [Example 19, 1-(3,4-Dichlorobenzyl)-3-(4-(methoxymethyl)thiazol-2-yl)urea]
- IC50 (S. pyogenes PolC): 0.11 to 25 µM

Structure (SMILES): CCCCOCc1csc(NC(=O)NCc2ccc(Cl)c(Cl)c2)n1 [Example 21, 1-(3,4-Dichlorobenzyl)-3-(4-(butoxymethyl)thiazol-2-yl)urea]
- MIC [1]: 0.12 to 4 µg/mL (≈ 0.309 to 10.3 µM)

Structure (SMILES): CS(=O)(=O)CCOCc1csc(NC(=O)NCc2ccc(Cl)c(Cl)c2)n1 [Example 28, 1-(3,4-Dichlorobenzyl)-3-(4-((2-(methylsulfonyl)ethoxy)methyl)thiazol-2-yl)urea]
- time kill kinetics result (S. aureus): bactericidal
- time kill kinetics result (S. pneumoniae): bactericidal
- time kill kinetics result (E. faecalis): bactericidal
- time kill kinetics result (S. epidermidis): bactericidal
- time kill kinetics result (S. pyogenes): bactericidal
- time kill kinetics result (E. faecium): bactericidal
- activity against resistant strain [2]: active
- activity against resistant strain [3]: active
- activity against resistant strain [4]: active
- activity against resistant strain [5]: active
- activity against resistant strain ([6]; methicillin-(oxacillin-) resistant and mupirocin resistant S. epidermidis): active
- activity against resistant strain [7]: active
- activity against resistant strain [8]: active
- activity against resistant strain ([9]; vancomycin-, macrolide-, and ciprofloxacin-resistant E. faecalis (VRE)): active
- MICs in sensitive versus drug resistant strains [10]: comparable
- MIC [10]: 0.5 to 4 µg/mL (≈ 1.14 to 9.12 µM)
- MIC90 [11]: 1 to 8 µg/mL (≈ 2.28 to 18.2 µM)

Structure (SMILES): O=C(NCc1ccc(Cl)c(Cl)c1)Nc1nc(COCCO)cs1 [Example 31, 1-(3,4-Dichloro-benzyl)-3-[4-(2-hydroxy-ethoxymethyl)-thiazol-2-yl]-urea]
- time kill kinetics result (S. aureus): bactericidal
- time kill kinetics result (S. pneumoniae): bactericidal
- time kill kinetics result (E. faecalis): bactericidal
- activity against resistant strain [2]: active
- activity against resistant strain [3]: active
- activity against resistant strain [4]: active
- activity against resistant strain [5]: active
- activity against resistant strain ([6]; methicillin-(oxacillin-) resistant S. epidermidis): active
- activity against resistant strain [8]: active
- activity against resistant strain ([9]; vancomycin-resistant E. faecalis (VRE)): active
- MICs in sensitive versus drug resistant strains [10]: comparable
- MIC [10]: 1 to 32 µg/mL (≈ 2.66 to 85 µM)

Structure (SMILES): O=C(NCc1ccc(Cl)c(Cl)c1)Nc1nc(CO)cs1 [Example 39, 1-(3,4-Dichlorobenzyl)-3-(4-(hydroxymethyl)thiazol-2-yl)urea]
- IC50 (S. pyogenes PolC): 0.11 to 25 µM
- MIC [1]: 0.12 to 4 µg/mL (≈ 0.361 to 12 µM)

Structure (SMILES): COCCOCc1csc(NC(=O)NCc2ccc3c(c2)OCO3)n1 [Example 52, 1-Benzo[1,3]dioxol-5-ylmethyl-3-[4-(2-methoxy-ethoxymethyl)-thiazol-2-yl]-urea]
- MIC [1]: 0.12 to 4 µg/mL (≈ 0.328 to 10.9 µM)

Structure (SMILES): COCCOCc1csc(NC(=O)NCc2ccc(Br)cc2)n1 [Example 56, 1-(4-bromobenzyl)-3-(4-((2-methoxyethoxy)methyl)thiazol-2-yl)urea]
- IC50 (S. pyogenes PolC): 0.11 to 25 µM

Structure (SMILES): CC(=O)Nc1ccc(SCc2csc(NC(=O)NCc3ccc(Cl)c(Cl)c3)n2)cc1 [Example 149, 1-(3,4-dichlorobenzyl)-3-(4-((4-acetamidophenylthio)methyl)thiazol-2-yl)urea]
- MIC [1]: 0.12 to 4 µg/mL (≈ 0.249 to 8.31 µM)
